Measurements from paper PMC7146544, “Dual Plasmepsin-Targeting Antimalarial Agents Disrupt Multiple Stages of the Malaria Parasite Life Cycle” (Cell Host & Microbe, 2020).
“Also recorded” adds a separate entry of the source. Like-named read-outs stand apart in the source and are kept apart here.

Columns and labels:
[1] = Pharmacokinetic attributes (no method given); conditions: in vivo
P. knowlesi = P. knowlesi drug sensitivity assay; format: cell-based, Plasmodium knowlesi; conditions: 48 h, blood stage parasites, read-out: EC50, inhibition of P. knowlesi growth
Experimental: The drug sensitivity assays were performed in 96-well plates using 50 μL culture at 0.5% parasitemia and 2% hematocrit. The compounds were serially diluted in 1% DMSO. Parasite growth assays were performed for 48 h. Parasite cultures were then fixed with 50 μL 0.25% glutaraldehyde for 30 min at room temperature. The culture supernatants were removed and the cells were stained with 5% SYBR Green in the dark for 30 min. Parasitemia was defined by the proportion of Alexa 488-A positive cells in 50,000 recorded events using LSR II analyzer (BD). The percentage of parasite growth was normalized with the DMSO vehicle control group and the highest-dosage group, and plotted as a dose-response curve in Prism 7.

P. berghei liver stages = experiment: In vitro analysis of P. berghei liver parasites in HepG2 cells; format: cell-based, Plasmodium berghei; conditions: 100 nM from 24 hpi
Experimental: (§1) To infect cells, freshly isolated PbmCherryLuci salivary gland sporozoites were resuspended in complete medium and 10^4 sporozoites added to each well (MOI 0.34) before spinoculation at 500 x g for 3 min. Sporozoites were allowed to infect cells for 3 h before washing with complete medium. […] The compound containing medium was changed the next morning before 48 hpi to prevent removal of detached cells and merosomes in the supernatant at later time points ([Sturm et al., 2006]). To measure inhibition of parasitised cell detachment in the treated cultures, each well was imaged for mCherry at 20x magnification using an Opera Phenix High Content Screening System (PerkinElmer) at 48 hpi (live cell microscopy) and again at 65 hpi following fixation with 4% formalin in PBS, and the number of mCherry^+ parasites counted using the Columbus Image Data Storage and Analysis System (PerkinElmer). Cell detachment was calculated as the percent of parasites lost from the monolayer between 48 – 65 hpi. The culture supernatant containing merosomes and detached parasitised cells from each well was collected at 65 hpi, washed once in complete media by centrifugation at 500 x g for 3 min, then i.v. injected into individual male Swiss mice. Daily Giemsa stained thin blood smears were monitored for patent blood infection as described previously.
Following fixation at 65 hpi, infected hepatocyte monolayers were blocked and permeabilized in PBS containing 1% BSA and 0.1% Triton X-100 (blocking buffer) for 1 h before incubation with polyclonal Goat-anti-PbUIS4 (1:500) and Rabbit-anti-PyMSP1_19 antiserum (1:200) for 1 h. After 3 washes in PBS to remove primary antibodies, wells were incubated sequentially with secondary antibodies recognizing Goat IgG (Alexa Fluor 488; 1:500) and then Rabbit IgG (Alexa Fluor 633; 1:500) for 1 h, separated by 3 washes with PBS. All antibody incubations were performed in blocking buffer at room temperature protected from light, and 2 μg/mL DAPI was added to the last incubation with secondary antibody to stain DNA. The center of each well was then imaged across a 12 μm z stack at 63x magnification using an Opera Phenix (PerkinElmer) for the above fluorochromes as well as mCherry to reveal parasite cytoplasm. Data was transferred to Columbus (PerkinElmer) and at least 70 parasites per condition were then manually scored based on a previously described staging system ([Graewe et al., 2011]). […] More extensive membrane invaginations surrounding individual nuclei with well segmented parasite cytoplasm and intact UIS4 staining were scored as ‘merozoite’ stage. ‘Egressed’ parasites were classified as either well segmented merozoite stages with evidence for PVM breakdown, or largely intact PVM vacuoles in which significant loss of parasite material was evident (Figure S6).

P. falciparum = P. falciparum asexual blood-stage growth inhibition (LDH or SYBR Green flow cytometry); format: cell-based, Plasmodium falciparum; conditions: Plasmodium falciparum, 3D7, 3D7 parasite line, asexual blood stage; read-out: EC50, inhibition of P. falciparum growth
Experimental: For High Throughput Screening (HTS) of compounds we used the lactate dehydrogenase (LDH) assay to detect parasitemia ([Makler et al., 1993], [Oduola et al., 1997]) formatted in a 384 well assay using an Echo555 (Labcyte). The P. falciparum assay was conducted with minor modifications ([Gamo et al., 2010]). Briefly, an inoculum of parasitized red blood cells at 0.7% parasitemia and 2% hematocrit in RPMI-1640, 5% AlbuMAX, 2% d-sucrose, 0.3% glutamine and 150 μM hypoxanthine was used for the assay. Assay plates (Greiner #781098, 384 well, white, tissue culture treated) were prepared by dispensing 1 μl of compound from master plates at 20 μM (10% DMSO stock) into 9ul pre-dispensed growth media in each well. The parasite inoculum (30 μl) was dispensed into plates containing compounds using a Multidrop Combi dispenser (Thermo Scientific). Final assay volume was 40 μl and final compound concentration was 500 nM. The positive growth control was 0.25% DMSO and the negative growth control was 100 nM chloroquine. Plates were incubated at 37 °C for 72 h in an atmosphere of […]. Following 72 h growth, plates were sealed with parafilm and frozen at −80 °C overnight. Plates were thawed at room temperature for at least 4 h prior to LDH activity being measured. 45 μl of fresh LDH reaction mix (174 mM sodium l-lactate, 214 μM 3-acetyl pyridine adenine dinucleotide (APAD), 270 μM Nitro Blue tetrazolium chloride (NBT), 4.35 U ml-1 diaphorase, 0.7% Tween 20, 100 mM Tris-HCl pH 7.5) was dispensed into each well using a Multidrop Combi dispenser. Plates were shaken to ensure mixing and absorbance at 650 nm was measured in an EnVision (PerkinElmer) plate reader after 30 min of incubation at room temperature. Data were normalized to percent growth inhibition using positive and negative controls and analyzed using Dotmatics 5.3 and Spotfire 7.11.1 (Tibco) software.
All wells were backfilled with DMSO to 45 nL such that this remained constant (0.1% DMSO). The positive growth control was 0.1% DMSO and the negative growth control was 100 nM chloroquine. Parasite inoculum (40 μl) was dispensed into plates containing compounds as described above. All other culture and lactate dehydrogenase (LDH) reaction methods are as described previously ([Makler et al., 1993], [Oduola et al., 1997]).
After 72 h incubation at 37°C each well was fixed at room temperature for 30 min with 50 μL of 0.25% glutaraldehyde (ProSciTech) diluted in PBS. Following centrifugation at 1200 rpm for 1 min, supernatants were discarded and parasites were stained with 50 μL of 5X SYBR Green (Invitrogen) diluted in PBS. 50,000 cells were counted by flow cytometry using a Cell Lab Quanta SC – MPL Flow Cytometer (Beckman Coulter) ([Bacon et al., 2007]). Growth was expressed as a percentage of the parasitemia obtained using a vehicle control. All samples were tested in triplicate. EC50 values were determined using GraphPad Prism.

P. berghei = experiment: Merosome transfer from treated HepG2 cultures to mice; format: in vivo, Plasmodium berghei; conditions: HepG2 cultures treated with 1 nM, washed
Experimental: as §1

Row | SMILES | pharmacokinetic attributes [1] | EC50 (P. knowlesi; Plasmodium knowlesi) [nM] | EC50 (P. knowlesi) [nM] | detachment of parasitized HepG2 cells at 65 hpi (P. berghei liver stages) | egress of exoerythrocytic merozoites from hepatocytes in vitro (P. berghei liver stages) | liver parasite size and maturity at 65 hpi (P. berghei liver stages) | merozoite formation by liver stages (P. berghei liver stages) | liver parasite number or size at 48 hpi (P. berghei liver stages; HepG2 cells) | EC50 (P. falciparum) [nM] | blood infection of naive mice after i.v. injection of 65 hpi supernatants (P. berghei)
1 | CC(NC(=O)c1cccc(C(c2ccccc2)N2C(=N)NC(C)(C(C)C)CC2=O)c1)c1ccccc1 (racemic) [WM4] | did not have desirable pharmacokinetic attributes |  |  |  |  |  |  |  |  | 
2 | CCC1(CC)CC(=O)N([C@@H]2CCOc3ccc(C(=O)N[C@H]4CC(C)(C)Oc5ccccc54)cc32)C(=N)N1 [WM382] |  | 0.2 | 0.18 ± 0.06 | decrease in detachment; also recorded: reduced detachment of parasitized HepG2 cells | incomplete inhibitory effect; also recorded: reduced rates | increased size of parasites; also recorded: accumulation of larger, mature liver parasites containing merozoites without PVM degradation | normal | did not reduce parasite number or size | 0.6 | Blood infection was initiated in mice
